The values that follow come from patent US8048879B2, “Substituted 4,5,6,7-tetrahydro-isoxazolo[4,5-c]pyridine compounds and use thereof for producing medicaments” (Gruenenthal GmbH, priority 2005, dated 2011).

Structures are written as SMILES.

For the assay, the target named is T1, NA transporter (Rattus norvegicus, UniProt Q9WTR4).
T1 construct: from tissue; host or cells: rat brain (hypothalamus), synaptosomes, P2 fraction
Kind of assay: Noradrenalin (NA) uptake inhibition, synaptosomes from rat brain (hypothalamus). In kind it is biochemical. The source says: b) Method for Determining Noradrenalin and 5-HT Uptake Inhibition:
Synaptosomes from rat brain regions are freshly isolated for in vitro studies, as described in the publication “The isolation of nerve endings from brain” by E. G. Gray and V. P. Whittaker, J. Anatomy 96, pages 79-88, 1962. The corresponding literature description is hereby introduced as a reference and is deemed to be part of the disclosure.
The tissue (hypothalamus for the determination of noradrenalin uptake inhibition and medulla and pons for the determination of 5-HT uptake inhibition) is homogenised in ice-cooled 0.32 M sucrose (100 mg of tissue/1 mL) in a glass homogeniser with Teflon pestle using five complete up and down strokes at 840 revolutions/minute.
The homogenate is centrifuged at 4° C. for 10 minutes at 1000 g. After subsequent centrifugation at 17000 g for 55 minutes, the synaptosomes (P2 fraction) are obtained, which are resuspended in 0.32 M […] (0.5 mL/100 mg of original weight).
The particular uptake is measured in a 96-well microtitre plate. The volume is 250 μL and the incubation proceeds at room temperature (approx. 20-25° C.) under an O2 atmosphere.
The incubation time is 7.5 minutes for [^3H]-NA and 5 minutes for [^3H]-5-HT. The 96 samples are then filtered through a Unifilter GF/B® microtitre plate (Packard) and washed with 200 mL of incubated buffer using a “Brabdel MPXRI-96T Cell-Harvester”. The Unifilter GF/B plate is dried for 1 hour at 55° C. The plate is then sealed with a Back Seal® (Packard) and 35 μL of scintillation fluid are added per well (Ultima Gold®, Packard). After sealing with a top Seal® (Packard) and establishing an equilibrium (around 5 hours), radioactivity is determined in a “Trilux 1450 Microbeta” (Wallac).
The quantity of protein used in the above determination corresponds to the values known from the literature, as for example described in “Protein measurement with the folin phenol reagent”, Lowry et al., J. Biol. Chem., 193, 265-275, 1951.
A detailed description of the method may additionally be found in the literature, for example in M. Ch. Frink, H.-H. Hennies, W. Engelberger, M. Haurand and B. Wilffert (1996) Arzneim.-Forsch./Drug Res. 46 (III), 11, 1029-1036.
The following characteristics were determined for the NA or 5-HT transporter: […]

T1 sequence (Q9WTR4 1-597): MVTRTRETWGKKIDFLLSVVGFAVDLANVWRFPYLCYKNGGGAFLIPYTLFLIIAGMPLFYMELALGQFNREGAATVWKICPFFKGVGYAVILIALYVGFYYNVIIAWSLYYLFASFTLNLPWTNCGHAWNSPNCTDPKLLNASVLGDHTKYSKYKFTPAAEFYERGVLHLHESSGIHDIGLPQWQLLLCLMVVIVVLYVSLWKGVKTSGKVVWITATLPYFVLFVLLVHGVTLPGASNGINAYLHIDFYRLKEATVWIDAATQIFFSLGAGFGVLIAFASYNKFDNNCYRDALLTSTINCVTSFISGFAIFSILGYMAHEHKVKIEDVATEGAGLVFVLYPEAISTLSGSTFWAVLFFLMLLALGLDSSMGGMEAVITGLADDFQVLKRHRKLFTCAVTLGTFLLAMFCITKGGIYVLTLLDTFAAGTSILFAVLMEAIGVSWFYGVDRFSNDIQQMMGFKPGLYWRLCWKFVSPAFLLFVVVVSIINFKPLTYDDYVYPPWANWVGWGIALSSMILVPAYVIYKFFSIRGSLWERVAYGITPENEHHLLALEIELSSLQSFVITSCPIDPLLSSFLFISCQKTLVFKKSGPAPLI

As usually defined, the inhibition is the change of the read-out against control, counted positive when it falls. Turning to `O=C(NCCN1CCOCC1)c1noc2c1CN(S(=O)(=O)c1cc(Cl)c(Cl)s1)CC2` [Example 63, 5-(4,5-dichloro-thiophene-2-sulfonyl)-4,5,6,7-tetrahydro-isoxazolo[4,5-c]pyridine-3-carboxylic acid (2-morpholin-4-yl-ethyl) amide], the inhibition at 10 µM amounted to 77%.
As to `CCOC(=O)CCNC(=O)c1noc2c1CN(C(=O)Cc1ccc3ccccc3c1)CC2` [Example 125, 3-{[5-(2-naphthalen-2-yl-acetyl)-4,5,6,7-tetrahydro-isoxazolo[4,5-c]pyridine-3-carbonyl]-amino}-propionic acid ethyl ester], 10 µM produced 63% inhibition.
In the case of `O=C(NCCN1CCCC1)c1noc2c1CN(S(=O)(=O)c1cccc(Cl)c1)CC2` [Example 118, 5-(3-chloro-benzenesulfonyl)-4,5,6,7-tetrahydro-isoxazolo[4,5-c]pyridine-3-carboxylic acid (2-pyrrolidin-1-yl-ethyl) amide], the inhibition at 10 µM stood at 63%.
Same read-out and setting: the figure for `O=C(Nc1ccccc1)c1noc2c1CN(Cc1ccc3ccccc3c1Br)CC2` [Example 135, 5-(1-bromo-naphthalen-2-ylmethyl)-4,5,6,7-tetrahydro-isoxazolo[4,5-c]pyridine-3-carboxylic acid phenyl amide] is 60%.
Regarding `O=C(NCCc1ccccc1)c1noc2c1CN(C(=S)Nc1c(F)c(F)c(F)c(F)c1F)CC2` [Example 131, 5-pentafluorophenylthiocarbamoyl-4,5,6,7-tetrahydro-isoxazolo[4,5-c]pyridine-3-carboxylic acid phenethyl amide], the “NA Uptake (rat), 10 μM, % inhibition” value was determined as 73%.
Compound `O=C(NC1CCCC1OCc1ccccc1)c1noc2c1CN(S(=O)(=O)c1cc(Cl)ccc1Cl)CC2` (centres unmarked) [Example 40, 5-(2,5-dichloro-benzenesulfonyl)-4,5,6,7-tetrahydro-isoxazolo[4,5-c]pyridine-3-carboxylic acid (2-benzyloxy-cyclopentyl) amide] gave an inhibition at 10 µM of 71%.
Take `Cc1ccc(S(=O)(=O)N2CCc3onc(C(=O)NC(C)C(=O)OC(C)(C)C)c3C2)cc1` (centres unmarked) [Example 120, 2-{[5-(toluene-4-sulfonyl)-4,5,6,7-tetrahydro-isoxazolo[4,5-c]pyridine-3-carbonyl]-amino}-propionic acid tert-butyl ester]: testing at 10 µM gave an inhibition of 62%.
For `COc1ccc(OCCNC(=O)c2noc3c2CN(S(=O)(=O)c2ccc(C)cc2)CC3)cc1` [Example 109, 5-(toluene-4-sulfonyl)-4,5,6,7-tetrahydro-isoxazolo[4,5-c]pyridine-3-carboxylic acid [2-(4-methoxy-phenoxy)-ethyl] amide], the inhibition at 10 µM turned out to be 64%.
The same measure, in the same setting: to `O=C(c1noc2c1CN(S(=O)(=O)c1ccc(OC(F)(F)F)cc1)CC2)N(CCc1ccccc1)Cc1ccccc1` [Example 32, 5-(4-trifluoromethoxy-benzenesulfonyl)-4,5,6,7-tetrahydro-isoxazolo[4,5-c]pyridine-3-carboxylic acid benzyl-phenethyl amide] belongs 82%; to `CC(CCc1ccccc1)NC(=O)c1noc2c1CN(S(=O)(=O)c1ccc(OC(F)(F)F)cc1)CC2` (centres unmarked) [Example 96, 5-(4-trifluoromethoxy-benzenesulfonyl)-4,5,6,7-tetrahydro-isoxazolo[4,5-c]pyridine-3-carboxylic acid (1-methyl-3-phenyl-propyl) amide], 63%.
The compound `O=C(NC1CCN(Cc2ccc(C(F)(F)F)cc2)C1)c1noc2c1CN(S(=O)(=O)c1ccccc1)CC2` (centres unmarked) [Example 103, 5-benzenesulfonyl-4,5,6,7-tetrahydro-isoxazolo[4,5-c]pyridine-3-carboxylic acid [1-(4-trifluoromethyl-benzyl)-pyrrolidin-3-yl] amide] yielded an inhibition at 10 µM of 91%.
On the same count and under the same terms, the figure for `CC(NC(=S)N1CCc2onc(C(=O)NCCc3ccccc3)c2C1)c1ccccc1` (centres unmarked) [Example 132, 5-(1-phenyl-ethylthiocarbamoyl)-4,5,6,7-tetrahydro-isoxazolo[4,5-c]pyridine-3-carboxylic acid phenethyl amide] is 76%.
Consider `CC12CCC(C(=O)N3CCc4onc(C(=O)NCCN5CCCC5)c4C3)(OC1=O)C2(C)C` (centres unmarked) [Example 51, 5-(4,7,7-trimethyl-3-oxo-2-oxa-bicyclo[2.2.1]heptane-1-carbonyl)-4,5,6,7-tetrahydro-isoxazolo[4,5-c]pyridine-3-carboxylic acid (2-pyrrolidin-1-yl-ethyl) amide], for which 10 µM produced 73% inhibition.
`COCCNC(=S)N1CCc2onc(C(=O)NCCc3ccccc3)c2C1` [Example 130, 5-(2-methoxy-ethylthiocarbamoyl)-4,5,6,7-tetrahydro-isoxazolo[4,5-c]pyridine-3-carboxylic acid phenethyl amide] registered an inhibition at 10 µM of 67%.
In turn, `CC(CCc1ccccc1)NC(=O)c1noc2c1CN(S(=O)(=O)c1ccc(F)cc1)CC2` (centres unmarked) [Example 38, 5-(4-fluoro-benzenesulfonyl)-4,5,6,7-tetrahydro-isoxazolo[4,5-c]pyridine-3-carboxylic acid (1-methyl-3-phenyl-propyl) amide] showed an inhibition at 10 µM of 66%.
Consider `O=C(Cc1ccc(F)c(F)c1)N1CCN(C(=O)c2noc3c2CN(S(=O)(=O)c2ccc(F)cc2)CC3)CC1` [Example 48, 2-(3,4-difluoro-phenyl)-1-{4-[5-(4-fluoro-benzenesulfonyl)-4,5,6,7-tetrahydro-isoxazolo[4,5-c]pyridine-3-carbonyl]-piperazin-1-yl}-ethanone], for which at 10 µM the inhibition was 61%.
Same read-out and setting: to `O=C(NC1CCN(Cc2ccc(C(F)(F)F)cc2)C1)c1noc2c1CN(S(=O)(=O)c1ccc(F)cc1)CC2` (centres unmarked) [Example 39, 5-(4-fluoro-benzenesulfonyl)-4,5,6,7-tetrahydro-isoxazolo[4,5-c]pyridine-3-carboxylic acid [1-(4-trifluoromethyl-benzyl)-pyrrolidin-3-yl]amide] belongs 61%.
The compound `O=C(NCc1cccs1)c1noc2c1CN(C(=O)c1ccco1)CC2` [Example 50, 5-(furan-2-carbonyl)-4,5,6,7-tetrahydro-isoxazolo[4,5-c]pyridine-3-carboxylic acid (thiophen-2-ylmethyl) amide] came in with an inhibition at 10 µM of 71%.
With `CCOC(=O)N1CCC(NC(=O)c2noc3c2CN(S(=O)(=O)c2ccc(F)cc2)CC3)CC1` [Example 43], the “NA Uptake (rat), 10 μM, % inhibition” value is 63%.
For the compound `O=C(c1noc2c1CN(S(=O)(=O)c1cc(Cl)ccc1Cl)CC2)N1CCN(c2ccccc2Cl)CC1` [Example 110, [4-(2-chlorophenyl)-piperazin-1-yl]-[5-(2,5-dichloro-benzenesulfonyl)-4,5,6,7-tetrahydro-isoxazolo[4,5-c]pyridin-3-yl]-methanone], testing at 10 µM gave an inhibition of 86%.
Same read-out and setting: the figure for `O=C(NCCc1ccccc1)c1noc2c1CN(C(=O)c1ccc(F)c(Cl)c1)CC2` [Example 105, 5-(3-chloro-4-fluoro-benzoyl)-4,5,6,7-tetrahydro-isoxazolo[4,5-c]pyridine-3-carboxylic acid phenethyl amide] is 62%; for `O=C(NCCCc1ccccc1)c1noc2c1CN(S(=O)(=O)c1ccc(F)cc1)CC2` [Example 35, 5-(4-fluoro-benzenesulfonyl)-4,5,6,7-tetrahydro-isoxazolo[4,5-c]pyridine-3-carboxylic acid (3-phenyl-propyl) amide] it is 73%; for `O=C(NC1CCCC1)c1noc2c1CN(C(=O)C=Cc1ccccc1)CC2` [Example 44, 5-(3-phenyl-acryloyl)-4,5,6,7-tetrahydro-isoxazolo[4,5-c]pyridine-3-carboxylic acid cyclopentyl amide] it is 76%.
In turn, `O=C(NC1CCCC1)c1noc2c1CN(C(=O)COc1ccc(Cl)cc1)CC2` [Example 81, 5-[2-(4-chlorophenoxy)-acetyl]-4,5,6,7-tetrahydro-isoxazolo[4,5-c]pyridine-3-carboxylic acid cyclopentyl amide] yielded an inhibition at 10 µM of 68%.
Regarding `CCOC(=O)CCNC(=O)c1noc2c1CN(C(=O)c1c(F)ccc(C)c1F)CC2` [Example 111, 3-{[5-(2,6-difluoro-3-methyl-benzoyl)-4,5,6,7-tetrahydro-isoxazolo[4,5-c]pyridine-3-carbonyl]-amino}-propionic acid ethyl ester], the inhibition at 10 µM is 66%.
`CCOC(=O)CCNC(=O)c1noc2c1CN(S(=O)(=O)c1ccc(Cl)cc1)CC2` [Example 121, 3-{[5-(4-chloro-benzenesulfonyl)-4,5,6,7-tetrahydro-isoxazolo[4,5-c]pyridine-3-carbonyl]-amino}-propionic acid ethyl ester]: the inhibition at 10 µM turned out to be 61%.
